Experiment [1] concerns the target T1, ACLY (Homo sapiens (Human), UniProt P53396). Briefly: Human ACLY (hACLY) RF/MS activity assay. Format: biochemical. The note with it: 1 nM hACLY; 30 min pre-incubation; 15 μM Coenzyme A, 50 μM ATP, 50 μM citrate; CoA to Acetyl-CoA by RF/MS; read-out: RFMS IC50 GMean. The method, boiled down: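 Reaction buffer was 50 mM Hepes pH 8.0, 10 mM MgCl2, 0.003% BSA, 0.01% Brij35, 50 mM NaCl, 4 mM DTT, with 1 nM hACLY and 1% DMSO; compounds (two-fold series from 10 μM) were pre-incubated 30 min at RT. Reaction with 15 μM CoA, 50 μM ATP, 50 μM citrate ran 30 min, formic-acid quenched; CoA and acetyl-CoA quantified by RF/MS as ratio.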

The target in experiment [2] is T1, ACLY. Description: InCell Pulse assay (permeate HEK293 cells, bind to and stabilize ACLY). Format: cell-based. The note with it: HEK293 cells transfected with pICP-ACLY(FL)-ePL; 1 hour at 37° C., 55° C. heat pulse 10 minutes; read-out: InCell Pulse IC50 GMean. Put shortly:
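HEK293 cells transiently expressing full-length ACLY-ePL were exposed in OptiMEM to 11-point, 3-fold compound dilutions for 1 h at 37 °C, heat-pulsed 10 min at 55 °C, then lysed for enzyme-fragment complementation luminescence. Four-parameter fit, normalised to 0.5% DMSO and 1 μM NDI-094311.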

pIC50: −log10 of the molar value.

T1 sequence (P53396 whole entry): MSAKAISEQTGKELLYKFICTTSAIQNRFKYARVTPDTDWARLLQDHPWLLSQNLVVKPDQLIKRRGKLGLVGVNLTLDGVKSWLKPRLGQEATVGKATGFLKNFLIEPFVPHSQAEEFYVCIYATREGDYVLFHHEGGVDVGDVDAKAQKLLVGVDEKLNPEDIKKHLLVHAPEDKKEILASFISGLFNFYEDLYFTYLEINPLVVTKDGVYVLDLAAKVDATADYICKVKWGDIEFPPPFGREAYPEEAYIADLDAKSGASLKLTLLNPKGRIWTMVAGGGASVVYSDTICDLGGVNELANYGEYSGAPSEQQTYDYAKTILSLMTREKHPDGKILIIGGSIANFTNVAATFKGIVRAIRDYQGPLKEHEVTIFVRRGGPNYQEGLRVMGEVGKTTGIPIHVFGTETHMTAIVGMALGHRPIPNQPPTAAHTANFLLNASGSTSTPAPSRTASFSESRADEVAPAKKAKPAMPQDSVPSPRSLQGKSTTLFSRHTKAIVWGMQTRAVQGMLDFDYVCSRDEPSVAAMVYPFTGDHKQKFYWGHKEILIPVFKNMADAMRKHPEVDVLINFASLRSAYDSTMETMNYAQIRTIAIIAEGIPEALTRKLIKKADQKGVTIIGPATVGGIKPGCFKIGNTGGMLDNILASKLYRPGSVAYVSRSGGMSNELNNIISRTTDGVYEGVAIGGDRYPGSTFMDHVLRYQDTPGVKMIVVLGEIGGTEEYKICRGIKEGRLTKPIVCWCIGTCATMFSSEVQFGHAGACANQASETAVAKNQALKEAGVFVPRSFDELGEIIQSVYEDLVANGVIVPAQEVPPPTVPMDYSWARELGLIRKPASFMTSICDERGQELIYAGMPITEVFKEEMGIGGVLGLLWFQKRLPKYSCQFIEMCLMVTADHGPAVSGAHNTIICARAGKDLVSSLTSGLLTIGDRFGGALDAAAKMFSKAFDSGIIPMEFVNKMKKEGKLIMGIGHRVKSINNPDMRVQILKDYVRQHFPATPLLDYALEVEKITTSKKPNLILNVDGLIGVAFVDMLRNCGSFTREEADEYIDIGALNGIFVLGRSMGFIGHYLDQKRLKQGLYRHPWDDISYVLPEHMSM

Consider `O=C1OCCOc2ccccc2-c2cc(c(F)cc2F)NS(=O)(=O)c2cc1ccc2C(F)F` [Compound 60, 16-(difluoromethyl)-21,23-difluoro-18,18-dioxo-8,11-dioxa-18λ6-thia-19-azatetracyclo[18.3.1.113,17.02,7]pentacosa-1(23),2(7),3,5,13(25),14,16,20(24),21-nonaen-12-one], for which the pIC50 – broadly, the IC50 on a negative log10 scale, so that one unit is a factor of ten – was at most 5.00 on ACLY [1] and at most 4.30 at ACLY [2].

With `O=C1OCCOc2ccccc2-c2cc(c(F)cc2F)NS(=O)(=O)c2cc1c[nH]c2=O` [Compound 36, 21,23-difluoro-18,18-dioxo-8,11-dioxa-18λ6-thia-15,19-diazatetracyclo[18.3.1.113,17.02,7]pentacosa-1(23),2(7),3,5,13,17(25),20(24),21-octaene-12,16-dione], the pIC50 was 7.00 to 7.70 on ACLY [1] and at most 4.30 at ACLY [2].

With `O=C1OCCOc2ncccc2-c2cc(c(F)cc2F)NS(=O)(=O)c2cc1cc(Cl)c2O` [Compound 32, 15-chloro-21,23-difluoro-16-hydroxy-8,11-dioxa-18lambda6-thia-6,19-diazatetracyclo[18.3.1.1^13,17.0^2,7]pentacosa-1(24),2,4,6,13,15,17(25),20,22-nonaene-12,18,18-trione], the pIC50 is above 7.70 on ACLY [1] and above 6.52 at ACLY [2].

For the compound `O=C1OCC2Cc3cccc(c3O2)-c2cc(c(F)cc2F)NS(=O)(=O)c2cc1cc(Cl)c2O` (stereo not shown) [Compound 39, 15-chloro-21,23-difluoro-16-hydroxy-18,18-dioxo-8,11-dioxa-18λ6-thia-19-azapentacyclo[18.3.1.16,9.113,17.02,7]hexacosa-1(23),2(7),3,5,13,15,17(25),20(24),21-nonaen-12-one], the values for the pIC50 at ACLY [1] and at ACLY [2] were above 7.70 and above 6.52, respectively.

Turning to `N#Cc1ccc2c(c1)-c1cc(c(F)cc1F)NS(=O)(=O)c1cc(cc(Cl)c1O)C(=O)OCCO2` [Compound 28, 15-chloro-21,23-difluoro-16-hydroxy-12,18,18-trioxo-8,11-dioxa-18lambda6-thia-19-azatetracyclo[18.3.1.1^13,17.0^2,7]pentacosa-1(24),2,4,6,13,15,17(25),20,22-nonaene-4-carbonitrile], the pIC50 is 7.00 to 7.70 at ACLY [1] and 6.00 to 6.52 on ACLY [2].

For the compound `O=C1NCc2ncccc2-c2cc(c(F)cc2F)NS(=O)(=O)c2cc1cc(Cl)c2O` [Compound 90, 13-chloro-19,21-difluoro-14-hydroxy-16,16-dioxo-16λ6-thia-6,9,17-triazatetracyclo[16.3.1.111,15.02,7]tricosa-1(22),2,4,6,11,13,15(23),18,20-nonaen-10-one], the pIC50 at ACLY [1] is 5.00 to 7.00; on ACLY [2], at most 4.30.

With `Cc1cc2cc(c1O)S(=O)(=O)Nc1cc(c(F)cc1F)-c1ccccc1CCOC2=O` [Compound 75, 20,22-difluoro-15-hydroxy-14-methyl-17,17-dioxo-10-oxa-17λ6-thia-18-azatetracyclo[17.3.1.112,16.02,7]tetracosa-1(23),2,4,6,12,14,16(24),19,21-nonaen-11-one], the values for the pIC50 at ACLY [1] and on ACLY [2] were 5.00 to 7.00 and 6.00 to 6.52, respectively.

As for `O=C1c2cc(Cl)c(O)c(c2)S(=O)(=O)Nc2cc(c(F)cc2F)-c2cccc3c2CN1C3` [Compound 89, 13-chloro-19,21-difluoro-14-hydroxy-16,16-dioxo-16λ6-thia-9,17-diazapentacyclo[16.3.1.16,9.111,15.02,7]tetracosa-1(21),2(7),3,5,11,13,15(23),18(22),19-nonaen-10-one], the pIC50 at ACLY [1] is 5.00 to 7.00; at ACLY [2], at most 4.30.

On to `CN1CCc2ccccc2-c2cc(c(F)cc2F)NS(=O)(=O)c2cc(cc(Cl)c2O)C1=O` [Compound 71, 14-chloro-20,22-difluoro-15-hydroxy-10-methyl-17,17-dioxo-17λ6-thia-10,18-diazatetracyclo[17.3.1.112,16.02,7]tetracosa-1(22),2(7),3,5,12,14,16(24),19(23),20-nonaen-11-one], for which the pIC50 at ACLY [1] was above 7.70; on ACLY [2], at most 4.30.

As for `O=C1OCCOc2ccc(F)cc2-c2cc(F)c(F)c(c2)NS(=O)(=O)c2cc1cc(Cl)c2O` [Compound 79, 15-chloro-4,21,22-trifluoro-16-hydroxy-18,18-dioxo-8,11-dioxa-18λ6-thia-19-azatetracyclo[18.3.1.113,17.02,7]pentacosa-1(23),2(7),3,5,13,15,17(25),20(24),21-nonaen-12-one], the pIC50 on ACLY [1] is above 7.70; on ACLY [2], above 6.52.

Regarding `O=C1OCCOc2ccc(Cl)cc2-c2ccc(F)c(c2)NS(=O)(=O)c2cc1cc(Cl)c2O` [Compound 52, 4,15-dichloro-21-fluoro-16-hydroxy-18,18-dioxo-8,11-dioxa-18λ6-thia-19-azatetracyclo[18.3.1.113,17.02,7]pentacosa-1(23),2(7),3,5,13,15,17(25),20(24),21-nonaen-12-one], the pIC50 at ACLY [1] is 7.00 to 7.70; on ACLY [2] it was 6.00 to 6.52.

For the compound `O=C1OCCCOc2cc(F)ccc2-c2cc(c(F)cc2F)NS(=O)(=O)c2cc1cc(Cl)c2O` [Compound 29, 16-chloro-5,22,24-trifluoro-17-hydroxy-8,12-dioxa-19lambda6-thia-20-azatetracyclo[19.3.1^1,4,18.0^2,7]hexacosa-1(25),2,4,6,14,16,18(26),21,23-nonaene-13,19,19-trione], the pIC50 at ACLY [1] is 7.00 to 7.70; on ACLY [2], 6.00 to 6.52.

As for `O=C1OCCOc2ccc(F)cc2-c2ccc(F)c(c2)NS(=O)(=O)c2cc1c[nH]c2=O` [Compound 37, 4,21-difluoro-18,18-dioxo-8,11-dioxa-18λ6-thia-15,19-diazatetracyclo[18.3.1.113,17.02,7]pentacosa-1(23),2(7),3,5,13,17(25),20(24),21-octaene-12,16-dione], the pIC50 on ACLY [1] is 5.00 to 7.00; at ACLY [2] it was at most 4.30.

In the case of `N#Cc1ccc2c(c1)COC(=O)c1cc(Cl)c(O)c(c1)S(=O)(=O)Nc1cc-2c(F)cc1F` [Compound 85, 13-chloro-19,21-difluoro-14-hydroxy-10,16,16-trioxo-9-oxa-16λ6-thia-17-azatetracyclo[16.3.1.111,15.02,7]tricosa-1(21),2(7),3,5,11,13,15(23),18(22),19-nonaene-5-carbonitrile], the pIC50 is above 7.70 on ACLY [1] and at most 4.30 on ACLY [2].

With `O=C1OCc2ncccc2-c2cc(c(F)cc2F)NS(=O)(=O)c2cc1cc(Cl)c2O` [Compound 88, 13-chloro-19,21-difluoro-14-hydroxy-16,16-dioxo-9-oxa-16λ6-thia-6,17-diazatetracyclo[16.3.1.111,15.02,7]tricosa-1(21),2(7),3,5,11,13,15(23),18(22),19-nonaen-10-one], the negative-log IC50 (pIC50) is 5.00 to 7.00 on ACLY [1] and at most 4.30 on ACLY [2].

`O=C1OCCCc2c(sc3ccccc23)-c2cc(c(F)cc2F)NS(=O)(=O)c2cc1cc(Cl)c2O` [Compound 22, 18-chloro-24,26-difluoro-19-hydroxy-14-oxa-3,21lambda6-dithia-22-azapentacyclo[21.3.1.1^16,20.0^2,10.0^4,9]octacosa-1(27),2(10),4,6,8,16,18,20(28),23,25-decaene-15,21,21-trione]: the pIC50 was 7.00 to 7.70 on ACLY [1] and at most 4.30 on ACLY [2].

With `Cc1cccc2c1-c1cc(c(F)cc1F)NS(=O)(=O)c1cc(cc(Cl)c1O)C(=O)OCCO2` [Compound 49, 15-chloro-21,23-difluoro-16-hydroxy-3-methyl-18,18-dioxo-8,11-dioxa-18λ6-thia-19-azatetracyclo[18.3.1.113,17.02,7]pentacosa-1(23),2(7),3,5,13(25),14,16,20(24),21-nonaen-12-one], the pIC50 at ACLY [1] is at most 5.00; on ACLY [2], at most 4.30.

As for `O=C1OCc2ccc(F)cc2-c2cc(F)c(F)c(c2)NS(=O)(=O)c2cc1cc(Cl)c2O` [Compound 83, 13-chloro-4,19,20-trifluoro-14-hydroxy-16,16-dioxo-9-oxa-16λ6-thia-17-azatetracyclo[16.3.1.111,15.02,7]tricosa-1(21),2,4,6,11,13,15(23),18(22),19-nonaen-10-one], the pIC50 on ACLY [1] was above 7.70; on ACLY [2], above 6.52.

For the compound `O=C1OCC2Cc3cccc(c3O2)-c2cc(c(F)cc2F)NS(=O)(=O)c2cc1cc(Cl)c2O` (single isomer, unassigned) [Compound 40, 15-chloro-21,23-difluoro-16-hydroxy-18,18-dioxo-8,11-dioxa-18λ6-thia-19-azapentacyclo[18.3.1.16,9.113,17.02,7]hexacosa-1(23),2(7),3,5,13,15,17(25),20(24),21-nonaen-12-one], the pIC50 at ACLY [1] is 5.00 to 7.00; at ACLY [2], 6.00 to 6.52.

Turning to `O=S1(=O)Nc2cc(c(F)cc2F)-c2ccccc2OCCn2cnnc2-c2cc(Cl)c(O)c1c2` [Compound 77, 25-chloro-17,19-difluoro-22,22-dioxo-9-oxa-2λ6-thia-3,4,6,21-tetrazapentacyclo[21.3.1.116,20.02,6.010,15]octacosa-1(26),2,4,10,12,14,16(28),17,19,23(27),24-undecaen-24-ol], the pIC50 on ACLY [1] was above 7.70; on ACLY [2], 4.30 to 6.00.

The record behind these values is patent US20250289793A1, “MACROCYCLIC INHIBITORS OF ATP CITRATE LYASE” (Esperion Therapeutics, Inc., priority 2022, published 2025).
